Assay [1] concerns general wild strain bacteria. As to the kind of experiment: Minimum inhibitory concentration (MIC) against general wild strain bacteria. In kind it is cell-based. As for the experimental part: (§1) A minimum inhibitory concentration (MIC) of a MUM was determined and compared to that of the biocide glutaraldehyde. Specifically, the indicated compound or blend of compounds was used to treat a wildtype E. coli strain and the effect of this treatment on bacterial count used to determine the MIC.
(§2) However, the mixture of the glyoxal and glycolaldehyde (1,4 dioxane 2,5 diol) provided competitive performance to glutaraldehyde.

The subject of the next assay is E. Coli. The experiment in a line: Minimum inhibitory concentration (MIC) against E. coli. In kind it is cell-based. The following applies: Escherichia coli. As for the experimental part: as §1, §2

≈ marks a conversion by molar mass, not a printed value.

For the compound `OC1COC(O)CO1` (stereo not drawn) [39% 1,4 dioxane 2,5 diol, 1,4 dioxane 2,5 diol], the MIC (usually the least concentration at which growth counts as inhibited) was over 1000 µg/mL in assay [1] and 1000 µg/mL (≈ 8.33 mM) against E. Coli.

With `O=CC=O` [39% glyoxal, glyoxal], the MIC in assay [1] is over 1000 µg/mL; with E. Coli it was 1000 µg/mL (≈ 17.2 mM).

For the compound `O=CCCCC=O` [40% glutaraldehyde, glutaraldehyde], the MIC (in assay [1]; in the assay with E. Coli) was 1000 µg/mL (≈ 9.99 mM) throughout.

The record behind these values is patent US20260363239A1, “COMPOSITIONS TO CONTROL LEVEL OF UNDESIRABLE MATERIALS” (Solugen, Inc., priority 2022, published 2026).
